Tests used:
[1] = test system: Human immunodeficiency virus 1; experiment: Antiviral activity against wild type HIV1 IIIB infected in human MT4 cells assessed as reduction in virus induced cytopathic effect incubated for 5 days by Spectrophotometric based MTT assay; type: functional, organism-based; conditions: Human immunodeficiency virus 1, IIIB, MT4, 120 h
[2] = test system: Human immunodeficiency virus 1; experiment: Antiviral activity against HIV1 harboring RES056 mutant infected in human MT4 cells assessed as reduction in virus induced cytopathic effect incubated for 5 days by Spectrophotometric based MTT assay; type: functional, organism-based; conditions: Human immunodeficiency virus 1, RES056, MT4, 120 h
[3] = test system: MT4; experiment: Cytotoxicity against human MT4 cells assessed as reduction in cell viability incubated for 5 days by Spectrophotometric based MTT assay; type: functional; conditions: MT4, 120 h, time 5 day
[4] = Selectivity index, ratio of CC50 for cytotoxicity against human MT4 cells to EC50 for antiviral activity against wild type HIV1 IIIB infected in human MT4 cells
[5] = Selectivity index, ratio of CC50 for cytotoxicity against human MT4 cells to EC50 for antiviral activity against HIV1 RES056 mutant infected in human MT4 cells
[6] = test system: Human immunodeficiency virus 1; experiment: Antiviral activity against HIV1 harboring L100I mutant infected in human MT4 cells assessed as reduction in virus induced cytopathic effect incubated for 5 days by Spectrophotometric based MTT assay; type: functional, organism-based; conditions: Human immunodeficiency virus 1, MT4, 120 h
[7] = test system: Human immunodeficiency virus 1; experiment: Antiviral activity against HIV1 harboring K103 N mutant infected in human MT4 cells assessed as reduction in virus induced cytopathic effect incubated for 5 days by Spectrophotometric based MTT assay; type: functional, organism-based; conditions: Human immunodeficiency virus 1, MT4, 120 h
[8] = test system: Human immunodeficiency virus 1; experiment: Antiviral activity against HIV1 harboring Y181C mutant infected in human MT4 cells assessed as reduction in virus induced cytopathic effect incubated for 5 days by Spectrophotometric based MTT assay; type: functional, organism-based; conditions: Human immunodeficiency virus 1, MT4, 120 h
[9] = test system: Human immunodeficiency virus 1; experiment: Antiviral activity against HIV1 harboring Y188L mutant infected in human MT4 cells assessed as reduction in virus induced cytopathic effect incubated for 5 days by Spectrophotometric based MTT assay; type: functional, organism-based; conditions: Human immunodeficiency virus 1, MT4, 120 h
[10] = test system: Human immunodeficiency virus 1; experiment: Antiviral activity against HIV1 harboring E138K mutant infected in human MT4 cells assessed as reduction in virus induced cytopathic effect incubated for 5 days by Spectrophotometric based MTT assay; type: functional, organism-based; conditions: Human immunodeficiency virus 1, MT4, 120 h
[11] = test system: Human immunodeficiency virus 1; experiment: Antiviral activity against HIV1 harboring F227L/V106A mutant infected in human MT4 cells assessed as reduction in virus induced cytopathic effect incubated for 5 days by Spectrophotometric based MTT assay; type: functional, organism-based; conditions: Human immunodeficiency virus 1, MT4, 120 h

Structure (SMILES): Cc1cc(/C=C/C#N)cc(C)c1Oc1ccnc(Nc2ccc(N3CCSCC3)c(C#N)c2)n1
- EC50 [1]: 9 nM
- EC50 [2]: 450 nM
- CC50 [3]: > 267000 nM
- selectivity ratio ([4]; MT4 cells): > 30300
- selectivity ratio ([5]; MT4 cells): > 596
- EC50 [6]: 21 nM
- EC50 [7]: 6 nM
- EC50 [8]: 40 nM
- EC50 [9]: 3000 nM
- EC50 [10]: 49 nM
- EC50 [11]: 66 nM

Structure (SMILES): Cc1ccnc2c1NC(=O)c1cccnc1N2C1CC1 [NEVIRAPINE]
- EC50 [2]: > 15000 nM
- CC50 [3]: > 15000 nM
- EC50 [6]: 3450 nM
- EC50 [7]: 9010 nM
- EC50 [8]: 4880 nM
- EC50 [9]: > 15000 nM
- EC50 [11]: > 15000 nM

Structure (SMILES): Cc1cn([C@H]2C[C@H](N=[N+]=[N-])[C@@H](CO)O2)c(=O)[nH]c1=O [ZIDOVUDINE]
- EC50 [1]: 35 nM
- EC50 [2]: 35 nM
- CC50 [3]: > 7480 nM
- selectivity ratio ([4]; mt4): > 212
- selectivity ratio ([5]; mt4): > 214

Structure (SMILES): Cc1cc(/C=C/C#N)cc(C)c1Oc1ccnc(Nc2ccc(N3CC[S+]([O-])CC3=O)c(C#N)c2)n1 (stereo not given)
- EC50 [1]: 15 nM
- EC50 [2]: 2810 nM
- CC50 [3]: 26400 nM
- selectivity ratio ([4]; MT4 cells): 1780
- selectivity ratio ([5]; MT4 cells): 9

Structure (SMILES): COP(=O)(OC)N1CCN(c2ccc(Nc3nccc(Oc4c(C)cc(/C=C/C#N)cc4C)n3)cc2C#N)C(=O)C1
- EC50 [1]: 250 nM
- EC50 [2]: > 23200 nM
- CC50 [3]: 23200 nM
- selectivity ratio ([4]; MT4 cells): 94

Structure (SMILES): Cc1cc(/C=C/C#N)cc(C)c1Oc1ccnc(Nc2ccc(N3CCC(C(F)(F)F)CC3)c(C#N)c2)n1
- EC50 [1]: 40 nM
- EC50 [2]: 17600 nM
- CC50 [3]: > 241000 nM
- selectivity ratio ([4]; MT4 cells): > 6100
- selectivity ratio ([5]; MT4 cells): > 14

Structure (SMILES): O=C1Nc2ccc(Cl)cc2[C@@](C#CC2CC2)(C(F)(F)F)O1 [EFAVIRENZ]
- EC50 [2]: 450 nM
- CC50 [3]: > 6340 nM
- EC50 [6]: 35 nM
- EC50 [7]: 100 nM
- EC50 [8]: 6 nM
- EC50 [11]: 290 nM

Structure (SMILES): COC1CCN(c2ccc(Nc3nccc(Oc4c(C)cc(/C=C/C#N)cc4C)n3)cc2C#N)CC1
- EC50 [1]: 6 nM
- EC50 [2]: > 6890 nM
- CC50 [3]: 6890 nM
- selectivity ratio ([4]; MT4 cells): 1080
- EC50 [6]: 130 nM
- EC50 [7]: 13 nM
- EC50 [8]: 160 nM
- EC50 [9]: 4860 nM
- EC50 [10]: 190 nM
- EC50 [11]: 150 nM

Structure (SMILES): Cc1cc(/C=C/C#N)cc(C)c1Oc1ccnc(Nc2ccc(N3CCN(C)CC3)c(C#N)c2)n1
- EC50 [1]: 20 nM
- EC50 [2]: > 3940 nM
- CC50 [3]: 3940 nM
- selectivity ratio ([4]; MT4 cells): 195

Structure (SMILES): Cc1cc(/C=C/C#N)cc(C)c1Oc1ccnc(Nc2ccc(N3CCCCC3)c(C#N)c2)n1
- EC50 [1]: 43 nM
- EC50 [2]: 4480 nM
- CC50 [3]: > 277000 nM
- selectivity ratio ([4]; MT4 cells): > 6380
- selectivity ratio ([5]; MT4 cells): > 62

Structure (SMILES): Cc1cc(/C=C/C#N)cc(C)c1Oc1ccnc(Nc2ccc(N3CCCC3)c(C#N)c2)n1
- EC50 [1]: 54 nM
- EC50 [2]: 5320 nM
- CC50 [3]: 270000 nM
- selectivity ratio ([4]; MT4 cells): 5010
- selectivity ratio ([5]; MT4 cells): 51

Structure (SMILES): Cc1cc(/C=C/C#N)cc(C)c1Oc1ccnc(Nc2ccc(N3CCC(F)CC3)c(C#N)c2)n1
- EC50 [1]: 14 nM
- EC50 [2]: 1480 nM
- CC50 [3]: > 267000 nM
- selectivity ratio ([4]; MT4 cells): > 18800
- selectivity ratio ([5]; MT4 cells): > 181

Structure (SMILES): Cc1cc(/C=C/C#N)cc(C)c1Oc1ccnc(Nc2ccc(N3CCSCC3=O)c(C#N)c2)n1
- EC50 [1]: 13 nM
- EC50 [2]: 920 nM
- CC50 [3]: 45300 nM
- selectivity ratio ([4]; MT4 cells): 3410
- selectivity ratio ([5]; MT4 cells): 49

Structure (SMILES): Cc1cc(C#N)cc(C)c1Oc1nc(Nc2ccc(C#N)cc2)nc(N)c1Br [ETRAVIRINE]
- EC50 [2]: 81 nM
- CC50 [3]: > 4590 nM
- EC50 [7]: 5 nM
- EC50 [9]: 35 nM
- EC50 [10]: 25 nM
- EC50 [11]: 28 nM

Structure (SMILES): Cc1cc(/C=C/C#N)cc(C)c1Oc1ccnc(Nc2ccc(N3CC(C#N)C3)c(C#N)c2)n1
- EC50 [1]: 13 nM
- EC50 [2]: > 44700 nM
- CC50 [3]: > 44700 nM
- selectivity ratio ([4]; MT4 cells): > 3480

Structure (SMILES): COC1CN(c2ccc(Nc3nccc(Oc4c(C)cc(/C=C/C#N)cc4C)n3)cc2C#N)C1
- EC50 [1]: 22 nM
- EC50 [2]: > 44200 nM
- CC50 [3]: > 44200 nM
- selectivity ratio ([4]; MT4 cells): > 2050

Structure (SMILES): Cc1cc(/C=C/C#N)cc(C)c1Oc1ccnc(Nc2ccc(N3CCC(F)(F)CC3)c(C#N)c2)n1
- EC50 [1]: 31 nM
- EC50 [2]: 1270 nM
- CC50 [3]: > 257000 nM
- selectivity ratio ([4]; MT4 cells): > 8290

— ChEMBL document CHEMBL6083236, “Identification of novel diarylpyrimidine derivatives as potent HIV-1 non-nucleoside reverse transcriptase inhibitors against wild-type and K103N mutant viruses” (Eur J Med Chem, 2024)
